This passage reports IC50 results from US8916565B2, “Pyrrolopyrazine-spirocyclic piperidine amides as modulators of ion channels” (priority 2011, dated 2014).

In the assay the target is human NaV subtype, like NaV 1.7 (Homo sapiens, UniProt Q15858). Briefly: E-VIPR optical membrane potential assay with electrical stimulation. To be noted: active against one or more sodium channels; Table 3 does not name the assay or NaV subtype; read-out: Binned Activity Data (IC50). Format: cell-based.
Sequence of human NaV subtype, like NaV 1.7 (Q15858 whole entry): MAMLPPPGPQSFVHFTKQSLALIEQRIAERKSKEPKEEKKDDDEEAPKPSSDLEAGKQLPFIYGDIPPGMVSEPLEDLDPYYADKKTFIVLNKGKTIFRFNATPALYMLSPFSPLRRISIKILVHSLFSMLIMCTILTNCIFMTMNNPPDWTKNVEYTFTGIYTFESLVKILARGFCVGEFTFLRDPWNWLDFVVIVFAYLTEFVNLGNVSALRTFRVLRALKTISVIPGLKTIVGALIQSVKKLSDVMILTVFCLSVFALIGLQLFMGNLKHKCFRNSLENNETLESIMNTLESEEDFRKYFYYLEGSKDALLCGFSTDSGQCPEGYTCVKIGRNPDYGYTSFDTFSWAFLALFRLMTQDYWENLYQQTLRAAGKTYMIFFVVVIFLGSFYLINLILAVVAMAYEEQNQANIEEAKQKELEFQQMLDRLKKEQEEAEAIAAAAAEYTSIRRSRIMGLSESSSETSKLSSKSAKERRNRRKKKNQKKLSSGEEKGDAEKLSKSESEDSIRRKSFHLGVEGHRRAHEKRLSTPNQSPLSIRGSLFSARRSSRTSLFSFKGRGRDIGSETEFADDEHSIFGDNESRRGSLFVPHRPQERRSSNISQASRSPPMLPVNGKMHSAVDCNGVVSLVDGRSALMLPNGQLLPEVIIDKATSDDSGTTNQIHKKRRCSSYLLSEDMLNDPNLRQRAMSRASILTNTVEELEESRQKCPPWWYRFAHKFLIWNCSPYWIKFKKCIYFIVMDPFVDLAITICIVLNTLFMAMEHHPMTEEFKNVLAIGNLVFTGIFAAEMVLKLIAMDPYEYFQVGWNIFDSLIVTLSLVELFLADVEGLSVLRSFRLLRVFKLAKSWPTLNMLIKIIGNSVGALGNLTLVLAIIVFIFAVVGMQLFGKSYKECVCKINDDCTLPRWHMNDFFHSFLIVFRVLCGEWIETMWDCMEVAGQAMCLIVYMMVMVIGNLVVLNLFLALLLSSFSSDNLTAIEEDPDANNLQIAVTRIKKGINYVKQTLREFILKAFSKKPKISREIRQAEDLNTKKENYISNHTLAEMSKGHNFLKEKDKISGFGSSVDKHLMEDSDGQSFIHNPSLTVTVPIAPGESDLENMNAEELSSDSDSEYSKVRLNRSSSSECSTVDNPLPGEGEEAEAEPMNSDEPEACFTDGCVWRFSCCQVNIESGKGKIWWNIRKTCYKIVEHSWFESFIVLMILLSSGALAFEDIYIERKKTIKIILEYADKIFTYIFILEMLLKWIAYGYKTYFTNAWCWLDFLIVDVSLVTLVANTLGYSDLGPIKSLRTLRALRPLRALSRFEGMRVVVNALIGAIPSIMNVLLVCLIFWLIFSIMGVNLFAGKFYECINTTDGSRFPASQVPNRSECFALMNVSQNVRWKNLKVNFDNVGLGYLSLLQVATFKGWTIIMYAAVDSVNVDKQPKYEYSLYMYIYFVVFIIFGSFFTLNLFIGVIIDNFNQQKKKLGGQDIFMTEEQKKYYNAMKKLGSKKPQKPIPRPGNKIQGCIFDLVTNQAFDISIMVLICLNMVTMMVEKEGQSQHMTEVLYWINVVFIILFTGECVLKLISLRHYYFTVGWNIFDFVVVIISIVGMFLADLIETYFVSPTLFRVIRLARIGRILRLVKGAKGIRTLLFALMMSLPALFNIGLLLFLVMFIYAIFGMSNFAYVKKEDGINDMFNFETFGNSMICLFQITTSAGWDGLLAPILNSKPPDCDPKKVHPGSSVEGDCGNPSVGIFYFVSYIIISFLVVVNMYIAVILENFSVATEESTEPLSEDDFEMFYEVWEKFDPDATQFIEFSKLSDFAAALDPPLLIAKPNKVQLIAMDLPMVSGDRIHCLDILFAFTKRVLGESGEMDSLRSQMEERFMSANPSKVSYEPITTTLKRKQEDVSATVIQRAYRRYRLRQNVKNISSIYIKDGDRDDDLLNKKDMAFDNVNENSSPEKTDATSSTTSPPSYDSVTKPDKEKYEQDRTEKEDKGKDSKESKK
By IC50 is commonly meant the concentration needed to halve the response being measured. With `CC(=O)c1ccc2n1CCN(C)C21CCN(C(=O)c2ccc(C(C)(C)O)c(C)c2)CC1` [Compound 456], the IC50 was 2000 to 5000 nM.

On to `Cc1cc(C(=O)N2CCC3(CC2)c2cccn2CCN3C)ccc1C(C)(C)O` [Compound 457], for which the IC50 was above 5000 nM.

Take `COC(=O)C1CN(C)C2(CCN(C(=O)c3ccc(OC(C)C)c(OC)c3)CC2)c2ccc(C(F)(F)F)n21` (stereo not shown) [Compound 458]: the IC50 is 2000 to 5000 nM.

Consider `COc1ccc(C(=O)N2CCC3(CC2)c2ccc(C(=O)C(F)(F)F)n2CCN3C)cc1C(F)(F)F` [Compound 459], for which the half-maximal inhibitory concentration (IC50) was at most 2000 nM.

With `COC(=O)N1CCn2c(C(F)(F)F)ccc2C12CCN(C(=O)c1ccc(OC(C)C)c(C)c1)CC2` [Compound 460], the half-inhibitory concentration (IC50) was at most 2000 nM.

On to `CC(C)Oc1ccc(C(=O)N2CCC3(CC2)c2ccc(C(F)(F)C(F)(F)F)n2CCN3C)cc1CO` [Compound 461], for which the IC50 was at most 2000 nM.

Take `CC(=O)c1ccc2n1CCN(C)C21CCN(C(=O)c2ccc(OCC(C)(C)C)cc2)CC1` [Compound 462]: the IC50 was at most 2000 nM.

With `C[C@H]1Cn2c(C(=O)C(F)(F)F)ccc2C2(CCN(C(=O)c3ccc(OCC(F)(F)F)cc3)CC2)N1C` [Compound 463], the IC50 was at most 2000 nM.

For `CN1CCn2c(ccc2C(F)(F)C(F)(F)F)C12CCN(C(=O)c1ccc(S(=O)(=O)C(C)(C)C)cc1)CC2` [Compound 464], the IC50 was at most 2000 nM.

Take `CCNc1ncccc1C(=O)N1CCC2(CC1)c1ccc(C(F)(F)F)n1CCN2C` [Compound 465]: the IC50 was above 5000 nM.

Regarding `Cc1cc(C(=O)N2CCC3(CC2)c2c(Cl)cc(C(F)(F)F)n2CCN3C)ccc1C(C)(C)O` [Compound 466], the IC50 is at most 2000 nM.

For `COc1cc(C(=O)N2CCC3(CC2)NC(C)(C)Cn2c(C(=O)C(F)(F)F)ccc23)ccc1COCC(F)(F)F` [Compound 467], the IC50 is at most 2000 nM.

In the case of `Cc1nc(C(=O)N2CCC3(CC2)c2ccc(C(=O)C(F)(F)F)n2CCN3C)ccc1OC(C)C` [Compound 468], the IC50 was at most 2000 nM.

As to `CN1CCn2c(C(F)(F)F)cc(Cl)c2C12CCN(C(=O)c1ccc(C(C)(C)O)cc1)CC2` [Compound 469], the IC50 was 2000 to 5000 nM.

Take `COc1cc(C(=O)N2CCC3(CC2)c2ccc(C(C)=O)n2CCN3C)ccc1COCC(F)(F)F` [Compound 470]: the IC50 is at most 2000 nM.

`Cc1cc(C(=O)N2CCC3(CC2)c2ccc(C(=O)C(F)(F)F)n2CCN3C)ccc1C(F)(F)F` [Compound 471]: the IC50 was at most 2000 nM.

With `CC(=O)c1ccc2n1CCN(C)C21CCN(C(=O)c2cccc3cccnc23)CC1` [Compound 472], the IC50 is above 5000 nM.

Consider `CC(=O)c1ccc2n1CCN(C)C21CCN(C(=O)c2ccc(C(C)(C)C)cc2)CC1` [Compound 473], for which the IC50 is above 5000 nM.

On to `CNC(=O)N1CCn2c(C(F)(F)F)ccc2C12CCN(C(=O)c1ccc(OC(C)C)cc1F)CC2` [Compound 474], for which the IC50 is 2000 to 5000 nM.

As for `Cc1cc(C(=O)N2CC[C@]3(c4ccc(C(F)(F)F)n4CCN3C)[C@H](F)C2)ccc1OC(C)C` [Compound 475], the IC50 is at most 2000 nM.

Turning to `Cc1cc(C(=O)N2CCC3(CC2)c2ccc(C(=O)C4CC4)n2CCN3C)ccc1O` [Compound 476], the IC50 is at most 2000 nM.

On to `CC(C)Oc1ccc(C(=O)N2CCC3(CC2)NCCn2c(C(F)(F)F)ccc23)cc1F` [Compound 477], for which the IC50 is at most 2000 nM.

On to `Cc1cc(C(=O)N2CCC3(CC2)c2ccc(C(=O)C(F)(F)F)n2CCN3C)ccc1-c1ccnn1C` [Compound 478], for which the IC50 is above 5000 nM.

For the compound `CCCN(CCC)S(=O)(=O)c1ccc(C(=O)N2CCC3(CC2)c2ccc(Cl)n2CCN3C)cc1` [Compound 479], the IC50 fell in the range of 2000 to 5000 nM.

Regarding `COc1cc(C(=O)N2CCC3(CC2)NC(C)(C)Cn2c(C(=O)C(F)(F)F)ccc23)ccc1COCCC(F)(F)F` [Compound 480], the IC50 was at most 2000 nM.

Turning to `CCNc1ccnc2c(C(=O)N3CCC4(CC3)c3ccc(C(F)(F)F)n3CCN4C)cnn12` [Compound 481], the IC50 is at most 2000 nM.

As to `CCS(=O)(=O)c1ccc(C(=O)N2CCC3(CC2)c2ccc(C(=O)C(C)(C)C)n2CCN3C)cc1C` [Compound 482], the IC50 lay within 2000 to 5000 nM.

With `COc1cc(C(=O)N2CCC3(CC2)c2c(F)cc(C(F)(F)F)n2CCN3C)ccc1OC(C)(C)C` [Compound 483], the half-maximal inhibitory concentration (IC50) was at most 2000 nM.

As to `COc1ccc(C(=O)N2CCC3(CC2)c2ccc(C(=O)C4CC4)n2CCN3C)cc1Cl` [Compound 484], the IC50 is at most 2000 nM.

As for `COc1ccc(C(=O)N2CCC3(CC2)c2ccc(C(=O)C(F)(F)F)n2C[C@H](C)N3C)nc1C` [Compound 485], the IC50 is at most 2000 nM.

On to `CC(C)CS(=O)(=O)c1ccc(C(=O)N2CCC3(CC2)c2ccc(C(F)(F)F)n2CCN3C)cc1` [Compound 486], for which the IC50 was at most 2000 nM.

`Cc1cc(C(=O)N2CCC3(CC2)c2ccc(C(=O)C(F)(F)F)n2CCN3C)ccc1C1(O)CCCC1` [Compound 487]: the IC50 was at most 2000 nM.

Consider `CC(C)Oc1ccc(C(=O)N2CCC3(CC2)c2ccc(C(F)(F)F)n2CCN3C)cc1` [Compound 488], for which the IC50 is at most 2000 nM.

Turning to `CCn1cnc(-c2ccc(C(=O)N3CCC4(CC3)c3ccc(C(=O)C(F)(F)F)n3CCN4C)cc2C)c1` [Compound 489], the IC50 was at most 2000 nM.

For `COc1ccc(C(=O)N2CCC3(CC2)NC(C)(C)Cn2c(C(=O)C(F)(F)F)ccc23)nc1C` [Compound 490], the IC50 was at most 2000 nM.

As for `CC1(C)Cn2c(C(=O)C(F)(F)F)ccc2C2(CCN(C(=O)c3ccc(O)c(Cl)c3)CC2)N1` [Compound 491], the IC50 is at most 2000 nM.

Regarding `Cc1cc(C(=O)N2CCC3(CC2)c2ccc(C(F)(F)F)n2CCN3C2CC2)ccc1S(=O)(=O)C(C)C` [Compound 492], the IC50 was at most 2000 nM.

As to `COc1ccc(C(=O)N2CCC3(CC2)c2ccc(C(=O)C4(C)CC4)n2CCN3C)cc1Cl` [Compound 493], the IC50 is at most 2000 nM.

In the case of `CN1CCn2c(C(=O)C(F)(F)F)ccc2C12CCN(C(=O)c1ccc(OCC(C)(C)C)cc1)CC2` [Compound 494], the IC50 is at most 2000 nM.

For `Cc1cc(C(=O)N2CCC3(CC2)N[C@@H](C)Cn2c(C(F)(F)F)ccc23)ccc1OC(C)C` [Compound 495], the IC50 was at most 2000 nM.

Consider `CN1CCn2c(C(=O)C(F)(F)F)ccc2C12CCN(C(=O)c1ccc(S(=O)(=O)C3CC3)cc1)CC2` [Compound 496], for which the IC50 was 2000 to 5000 nM.

Regarding `COc1ccc(C(=O)N2CCC3(CC2)NCCn2c(C(F)(F)F)ccc23)cc1` [Compound 497], the IC50 is above 5000 nM.

In the case of `Cc1cc(S(=O)(=O)C(C)C)ccc1C(=O)N1CCC2(CC1)c1ccc(C(F)(F)F)n1CCN2C` [Compound 498], the IC50 was at most 2000 nM.

Turning to `CN1CCn2c(C(F)(F)F)ccc2C12CCN(C(=O)c1ccc(CC(C)(C)O)cc1)CC2` [Compound 499], the IC50 was at most 2000 nM.

On to `CC(C)S(=O)(=O)c1ccc(C(=O)N2CCC3(CC2)c2ccc(C(=O)C(F)(F)F)n2C[C@H](C)N3C)cc1` [Compound 500], for which the IC50 is at most 2000 nM.

Consider `CC(C)COc1ccc(C(=O)N2CCC3(CC2)c2ccc(C(=O)C(F)(F)F)n2CCN3C)cc1` [Compound 501], for which the IC50 was at most 2000 nM.

With `CN1CCn2c(C(=O)C(F)(F)F)ccc2C12CCN(C(=O)c1ccc(S(=O)(=O)C(C)(C)C)cc1)CC2` [Compound 502], the IC50 was above 5000 nM.

Regarding `COc1ccc(C(=O)N2CCC3(CC2)NCC(C)n2c(C(=O)C(F)(F)F)ccc23)nc1C` (stereo not shown) [Compound 503], the IC50 is at most 2000 nM.

For `CC(=O)c1ccc2n1CCN(C)C21CCN(C(=O)c2ccc(N3CCCCC3)cc2)CC1` [Compound 504], the IC50 is above 5000 nM.

With `CC1CNC2(CCN(C(=O)c3ccc(COCCC(F)(F)F)cc3)CC2)c2ccc(C(=O)C(F)(F)F)n21` (stereo not shown) [Compound 505], the IC50 was at most 2000 nM.

With `COc1cc(C(=O)N2CCC3(NCCn4c(C(F)(F)F)ccc43)C(C)C2)ccc1OC(C)C` (stereo not shown) [Compound 506], the IC50 was 2000 to 5000 nM.

As for `CCCOc1ccc(C(=O)N2CCC3(CC2)c2ccc(C(C)=O)n2CCN3C)cc1` [Compound 507], the IC50 is above 5000 nM.

Regarding `Cc1cc(C(=O)N2CCC3(CC2)c2ccc(C(=O)C(F)(F)F)n2CCN3C)ccc1S(=O)(=O)C(C)C` [Compound 508], the IC50 is at most 2000 nM.

For the compound `CC1(C)Cn2c(C(=O)C(F)(F)F)ccc2C2(CCN(C(=O)c3ccc(OCC4CC4)c(F)c3)CC2)N1` [Compound 509], the IC50 is at most 2000 nM.

Regarding `CCOc1ccc(C(=O)N2CCC3(CC2)c2ccc(C(=O)C(F)(F)F)n2CCN3C)cc1OCC` [Compound 510], the IC50 is at most 2000 nM.

Take `CCC(CC)(CC)c1ccc(C(=O)N2CCC3(CC2)c2ccc(C(C)=O)n2CCN3C)cc1` [Compound 511]: the IC50 was above 5000 nM.

As for `CCc1ccc(C(=O)N2CCC3(CC2)c2ccc(Cl)n2CCN3C)cc1OC` [Compound 512], the IC50 was in the range of 2000 to 5000 nM.

Turning to `CC[C@@H](C)Oc1ccc(C(=O)N2CCC3(CC2)c2c(F)cc(C(F)(F)F)n2CCN3C)cc1OC` [Compound 513], the concentration for half-maximal inhibition (IC50) was at most 2000 nM.

For `COc1ncccc1-c1ccc(C(=O)N2CCC3(CC2)c2ccc(C(=O)C(F)(F)F)n2CCN3C)cc1C` [Compound 514], the IC50 is above 5000 nM.

Turning to `Cc1cc(C(=O)N2CCC3(CC2)c2ccc(C(F)(F)F)n2CCN3C)ccc1S(C)(=O)=O` [Compound 515], the IC50 is above 5000 nM.

For `COc1cc(C(=O)N2CCC3(CC2)c2ccc(C(=O)C(F)(F)F)n2CCN3C)ccc1OCC(C)C` [Compound 516], the IC50 was at most 2000 nM.

Consider `CN1CCn2c(C(=O)C(F)(F)F)ccc2C12CCN(C(=O)c1ccc(OS(=O)(=O)C(F)(F)F)cc1)CC2` [Compound 517], for which the IC50 was at most 2000 nM.

For `CN1CCn2c(C(F)(F)F)ccc2C12CCN(C(=O)c1cccnc1N1CCC(F)C1)CC2` (stereo not shown) [Compound 518], the IC50 was at most 2000 nM.

As for `CC(=O)c1ccc2n1CCN(C)C21CCN(C(=O)c2ccc(C(C)C)cc2)CC1` [Compound 519], the IC50 was above 5000 nM.

For `CC(=O)c1ccc2n1CCN(C)C21CCN(C(=O)c2ccc(OCC(F)(F)F)cc2)CC1` [Compound 520], the IC50 was at most 2000 nM.

`COc1ccc(C(=O)N2CCC3(CC2)c2ccc(C(=O)C4CC4)n2CCN3C)cc1C` [Compound 521]: the IC50 was at most 2000 nM.

For `CC[C@H](C)Oc1ccc(C(=O)N2CCC3(CC2)NCCn2c(C(F)(F)F)ccc23)cc1OC` [Compound 522], the IC50 is at most 2000 nM.
